Test results as given in patent US20110053933A1, “HYDROXYQUINOXALINECARBOXAMIDE DERIVATIVE” (DAIICHI SANKYO COMPANY, LIMITED, priority 2008, published 2011).
pIC50: −log10 of the molar value.

Tested on: γ-glutamyl carboxylation reaction (human Gas6 in Gas6-HEK293 cells)
Assay: Inhibitory action on γ-glutamyl carboxylation reaction (secreted γ-glutamyl carboxylated Gas6 by ELISA)
Format: cell-based
Settings: vitamin K2 100 nM, exposure 18 to 20 hours, ELISA absorbance at 620 nm, read-out: IC50 (50% inhibitory concentration for the γ-glutamyl carboxylation reaction)
Description: Measurement of Inhibitory Action on γ-Glutamyl Carboxylation Reaction
Cells were used that expressed Gas6 excreted outside the cells when subjected to γ-glutamyl carboxylation, and inhibitory action on γ-glutamyl carboxylation reaction was assessed by measuring the secreted amount of extracellular Gas6 by ELISA method.
(A) Preparation for Assay Plate Containing Solid-Phase Anti-Human Gas6 Antibody
Goat anti-human Gas6 antibody (R&D Systems, Inc.) was diluted to 1 μg/ml with Dulbecco's phosphate-buffered saline, and 40 μl aliquots thereof were dispensed into each well of a 384-well microplate. After immobilizing the antibody to the solid phase by allowing it to stand at 4° C. overnight or at room temperature for 2 hours or more, each well was washed three times with wash buffer (10 mM Tris-HCl pH 7.4, 150 mM sodium chloride, 0.05% Tween20). After removing the supernatant, 80 μl aliquots of a 1% aqueous solution of Block Ace (Dainippon Sumitomo Pharma) were dispensed into each well and allowed to react at room temperature for 1 hour or more.
(B) Exposure of Test Compounds to Cells Stably Expressing Human Gas6
Cells that stably express human Gas6 (Gas6-HEK293), which were prepared by inserting human Gas6 gene (inserted between SalI and NotI within multiple cloning sites of pCIneo expression vector) into HEK293 cells, were grown and sub-cultured using Dulbecco's modified Eagle's medium (DMEM) containing 10% fetal calf serum (FCS). On the day before ELISA measurement, the Gas6-HEK293 cells were detached with trypsin-EDTA, dispersed in DMEM containing 10% FCS, and disseminated into each well of a 384-well, collagen type I-coated plate (Becton-Dickinson) in 30 μl aliquots containing 1.0×10^4 cells each, followed by culturing for 3 to 4 hours at 5% CO2 and 37° C. 30 μl aliquots of DMEM containing test compound solutions, prepared at various concentrations by dissolving in DMSO, and vitamin K2 at 0.1% and 100 nM, respectively (indicating final concentrations in both cases) were added to each well followed by additionally culturing for 18 to 20 hours.
(C) Quantification of γ-Glutamyl Carboxylated Gas6 by ELISA and Calculation of 50% Inhibitory Concentrations of γ-Glutamyl Carboxylation Reaction
After removing the 1% Block Ace aqueous solution from the preliminarily prepared assay plates containing solid phase anti-human Gas6 antibody, the culture supernatant of Gas6-HEK293 cells exposed to the test compounds was collected and 40 μl aliquots were dispensed into each well followed by allowing to react at room temperature for 2 hours (Step 1). The culture supernatant was removed and each well was washed three times with wash buffer. Thereafter, the same washing procedure was carried out between Steps 2 and 3 and Steps 3 and 4. Subsequently, 40 μl aliquots of mouse anti-human […] antibody (American Diagnostica inc.), adjusted to 0.5 μg/ml with immunoreaction buffer (100 mM Tris-HCl pH 7.4, 0.05% Tween20, 0.1% Block Ace), were dispensed into each well and allowed to react at room temperature for 1 hour (Step 2). Next, 40 μl aliquots of alkaline phosphatase-conjugated anti-mouse IgG antibody adjusted to 1.0 μg/ml with immunoreaction buffer were dispensed into each well and allowed to react at room temperature for 1 hour (Step 3). 40 μl aliquots of BluePhos Microwell (KPL) were dispensed into each well, and after incubating at room temperature for 10 minutes (Step 4), 20 μl aliquots of 5% EDTA were added to each well to stop the color development reaction, followed by measurement of absorbance at 620 nm (Step 5). […]

`C[C@H](NC(=O)c1nc2ccccc2nc1O)C(=O)N1CCC(Oc2ccc(Cl)cc2)CC1` [Example 1, N-{(1S)-2-[4-(4-Chlorophenoxy)piperidin-1-yl]-1-methyl-2-oxoethyl}-3-hydroxyquinoxaline-2-carboxamide] showed a pIC50 of 8.08.

Molecule `C[C@H](NC(=O)c1nc2ccccc2nc1O)C(=O)N1CCC(Oc2ccc(F)cc2)CC1` [Example 2, N-{(1S)-2-[4-(4-Fluorophenoxy)piperidin-1-yl]-1-methyl-2-oxoethyl}-3-hydroxyquinoxaline-2-carboxamide] has a pIC50 of 8.18.

For `C[C@H](NC(=O)c1nc2ccccc2nc1O)C(=O)N1CCC(Oc2ccc(F)cc2F)CC1` [Example 3, N-{(1S)-2-[4-(2,4-Difluorophenoxy)piperidin-1-yl]-1-methyl-2-oxoethyl}-3-hydroxyquinoxaline-2-carboxamide], the pIC50 was 8.46.

Molecule `C[C@H](NC(=O)c1nc2ccccc2nc1O)C(=O)N1CCC(Oc2ccc(OC(F)(F)F)cc2)CC1` [Example 4, 3-Hydroxy-N-[(1S)-1-methyl-2-oxo-2-{4-[4-(trifluoromethoxy)phenoxy]piperidin-1-yl}ethyl]quinoxaline-2-carboxamide] has a pIC50 of 8.33.

With `C[C@H](NC(=O)c1nc2ccccc2nc1O)C(=O)N1CCC(Oc2ccc(F)cn2)CC1` [Example 6, N-[(1S)-2-{4-[(5-Fluoropyridin-2-yl)oxy]piperidin-1-yl}-1-methyl-2-oxoethyl]-3-hydroxyquinoxaline-2-carboxamide] the pIC50 was 7.13.

Molecule `CC[C@H](NC(=O)c1nc2ccccc2nc1O)C(=O)N1CCC(Oc2ccc(F)cc2)CC1` [Example 8, N-[(1S)-1-{[4-(4-Fluorophenoxy)piperidin-1-yl]carbonyl}propyl]-3-hydroxyquinoxaline-2-carboxamide] has a pIC50 of 8.74.

With `CC[C@H](NC(=O)c1nc2ccccc2nc1O)C(=O)N1CCC(Oc2ccc(F)cc2F)CC1` [Example 9, N-[(1S)-1-{[4-(2,4-Difluorophenoxy)piperidin-1-yl]carbonyl}propyl]-3-hydroxyquinoxaline-2-carboxamide] the pIC50 was greater than 9.22.

`CC[C@H](NC(=O)c1nc2ccccc2nc1O)C(=O)N1CCC(Oc2ccc(OC(F)(F)F)cc2)CC1` [Example 10, 3-Hydroxy-N-[(1S)-1-({4-[4-(trifluoromethoxy)phenoxy]piperidin-1-yl}carbonyl)propyl]quinoxaline-2-carboxamide] was tested, and the pIC50 was greater than 9.22.

With `CC[C@H](NC(=O)c1nc2ccccc2nc1O)C(=O)N1CCC(Oc2ccc(C#N)cc2)CC1` [Example 11, N-[(1S)-1-{[4-(4-Cyanophenoxy)piperidin-1-yl]carbonyl}propyl]-3-hydroxyquinoxaline-2-carboxamide] the pIC50 was 8.19.

For `CC[C@H](NC(=O)c1nc2ccccc2nc1O)C(=O)N1CCC(Oc2ccc(F)cn2)CC1` [Example 12, N-[(1S)-1-({4-[(5-Fluoropyridin-2-yl)oxy]piperidin-1-yl}carbonyl)propyl]-3-hydroxyquinoxaline-2-carboxamide], the pIC50 was 8.38.

`O=C(N[C@H](C(=O)N1CCC(Oc2ccc(F)cc2)CC1)C1CC1)c1nc2ccccc2nc1O` [Example 13, N-{(1S)-1-Cyclopropyl-2-[4-(4-fluorophenoxy)piperidin-1-yl]-2-oxoethyl}-3-hydroxyquinoxaline-2-carboxamide] gave a pIC50 of 8.24.

`O=C(N[C@H](C(=O)N1CCC(Oc2ccc(F)cn2)CC1)C1CC1)c1nc2ccccc2nc1O` [Example 14, N-[(1S)-1-Cyclopropyl-2-{4-[(5-fluoropyridin-2-yl)oxy]piperidin-1-yl}-2-oxoethyl]-3-hydroxyquinoxaline-2-carboxamide] gave a pIC50 of 7.60.

`CC(C)[C@H](NC(=O)c1nc2ccccc2nc1O)C(=O)N1CCC(Oc2ccc(Cl)cc2)CC1` [Example 15, N-[(1S)-1-{[4-(4-Chlorophenoxy)piperidin-1-yl]carbonyl}-2-methylpropyl]-3-hydroxyquinoxaline-2-carboxamide] gave a pIC50 of 7.74.

`CC(C)[C@H](NC(=O)c1nc2ccccc2nc1O)C(=O)N1CCC(Oc2ccc(F)cc2)CC1` [Example 16, N-[(1S)-1-{[4-(4-Fluorophenoxy)piperidin-1-yl]carbonyl}-2-methylpropyl]-3-hydroxyquinoxaline-2-carboxamide] showed a pIC50 of 8.15.
